Assay results as given in US20090069320A1, “Substituted 4-Amino-Quinazoline Compounds with Metabotropic Glutamate Receptor Regulating Activity and Uses Thereof” (Gruenenthal GmbH, priority 2006, published 2009).
Where a name gives a salt, the structure may show the parent alone.

Target: T1, mGluR5 receptor (Sus scrofa, UniProt I3LUI7)
T1 construct: 450 μg of protein from brain homogenate with 5 nM ^3[H]-MPEP; from tissue; host or cells: pig brain halves without medulla, cerebellum and pons
Assay: [3H]-MPEP mGluR5 receptor binding assay (pig brain homogenate)
Conditions: 5 nM [3H]-MPEP; for IC50: read-out: IC50 mGluR5 Receptor (pig) [^3H]-MPEP Bond; for inhibition at 10 µM: 10 μM compound, read-out: % Inhibition of mGluR5 Receptor (pig) [^3H]-MPEP Bond at 10 μM
Method: I. Method for Determining the Inhibition of the [^3H]-MPEP Bond in the mGluR5 Receptor Binding Assay
Pig brain homogenate is produced by homogenizing (Polytron PT 3000, Kinematica AG, 10 000 rpm for 90 seconds) pig brain halves without medulla, cerebellum and pons in pH 8.0 buffer (20 mM Hepes, Sigma, order no. H3375+1 complete tablet, 100 ml, Roche Diagnostics, order no. 1836145) in the ratio of 1:20 (brain weight/volume) and differential centrifuging at 900×g and 40 000×g. In incubation batches of 250 μl in 96-well microtitre plates 450 μg of protein from brain homogenate with 5 nM ^3[H]-MPEP (Tocris, order no. R1212) (MPEP=[…]) and the compounds to be examined (10 μM in test) in buffer (as above) are respectively incubated at room temperature for 60 minutes.
The batches are then filtered using a Brandel cell harvester (Brandel, Robotic 9600) on unifilter plates with fibreglass filter mats (Perkin Elmer, order no. 6005177) and then washed with buffer (as above) 3-times each with 250 μl per sample. The filter plates are then dried for 60 mins. at 55° C. Then, 30 μL of Ultima Gold™ scintillator (Packard BioScience, order no. 6013159) are added per well and after 3 hours the samples are measured on the β-counter (MicroBeta, Perkin Elmer). The non-specific binding is determined by adding 10 μM of MPEP (Tocris, order no. 1212).

T1 sequence (I3LUI7 19-1212): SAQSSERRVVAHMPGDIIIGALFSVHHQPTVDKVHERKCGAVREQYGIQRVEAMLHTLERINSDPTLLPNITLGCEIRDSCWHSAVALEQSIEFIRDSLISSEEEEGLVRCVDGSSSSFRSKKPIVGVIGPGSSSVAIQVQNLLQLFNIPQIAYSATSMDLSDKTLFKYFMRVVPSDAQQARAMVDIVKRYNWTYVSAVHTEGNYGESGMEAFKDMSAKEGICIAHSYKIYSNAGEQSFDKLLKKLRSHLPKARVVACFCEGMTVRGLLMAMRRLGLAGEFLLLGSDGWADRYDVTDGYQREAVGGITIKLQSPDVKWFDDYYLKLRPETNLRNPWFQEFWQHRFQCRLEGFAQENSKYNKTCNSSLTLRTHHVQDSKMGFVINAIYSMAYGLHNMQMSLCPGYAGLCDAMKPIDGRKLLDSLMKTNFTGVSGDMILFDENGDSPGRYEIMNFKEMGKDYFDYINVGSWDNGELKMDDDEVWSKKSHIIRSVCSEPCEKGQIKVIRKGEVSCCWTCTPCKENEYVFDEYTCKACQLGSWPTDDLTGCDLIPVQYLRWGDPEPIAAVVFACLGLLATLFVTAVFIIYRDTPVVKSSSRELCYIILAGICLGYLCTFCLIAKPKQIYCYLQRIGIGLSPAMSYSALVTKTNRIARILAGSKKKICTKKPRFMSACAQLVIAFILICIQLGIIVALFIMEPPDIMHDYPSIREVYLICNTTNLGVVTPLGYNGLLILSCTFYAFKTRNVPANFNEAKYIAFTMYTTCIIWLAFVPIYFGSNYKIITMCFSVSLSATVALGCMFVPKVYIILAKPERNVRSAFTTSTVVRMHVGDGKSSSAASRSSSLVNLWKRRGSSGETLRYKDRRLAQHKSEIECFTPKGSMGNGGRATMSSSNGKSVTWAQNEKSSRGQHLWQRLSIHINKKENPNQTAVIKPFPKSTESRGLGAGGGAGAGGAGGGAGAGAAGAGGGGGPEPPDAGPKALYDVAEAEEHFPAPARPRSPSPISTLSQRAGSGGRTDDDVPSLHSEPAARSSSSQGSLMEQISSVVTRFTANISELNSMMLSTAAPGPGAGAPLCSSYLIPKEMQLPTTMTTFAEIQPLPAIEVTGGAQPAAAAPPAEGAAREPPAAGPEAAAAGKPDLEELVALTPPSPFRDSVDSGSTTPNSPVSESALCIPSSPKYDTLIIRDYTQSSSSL

Row | IC50 | inhibition at 10 µM | Structure (SMILES)
1 | – | 45% | CCCCC(=O)N(Cc1cc(-c2ccc3ncnc(NC4CC4)c3c2)ccn1)C1CC1 [Example 829, N-cyclopropyl-N-((4-(4-(cyclopropylamino)quinazolin-6-yl)pyridin-2-yl)methyl)pentanamide]
2 | 20 nM | – | O=C1CCC(=O)N1Cc1cccc(-c2cc(C(F)(F)F)c3ncnc(NC4CC4)c3c2)c1 [Example 883, 1-(3-(4-(cyclopropylamino)-8-(trifluoromethyl)quinazolin-6-yl)benzyl)pyrrolidine-2,5-dione]
3 | – | 81% | O=C(c1cc(Cl)cc(Cl)c1)N(Cc1cc(-c2ccc3ncnc(NC4CC4)c3c2)ccc1F)C1CC1 [Example 421, 3,5-dichloro-N-cyclopropyl-N-(5-(4-(cyclopropylamino)quinazolin-6-yl)-2-fluorobenzyl)benzamide]
4 | – | 58% | c1cc(CNCc2ccco2)cc(-c2ccc3ncnc(NC4CC4)c3c2)c1 [Example 312, N-cyclopropyl-6-(3-((furan-2-ylmethylamino)methyl)phenyl)quinazoline-4-amine dihydrochloride]
5 | – | 76% | CC(=O)N(Cc1cccc(-c2ccc3ncnc(NCc4cccc(C)c4)c3c2)c1)C1CC1 [Example 419, N-cyclopropyl-N-(3-(4-(3-methylbenzylamino)quinazolin-6-yl)benzyl)acetamide]
6 | – | 76% | O=C(c1ccno1)N(Cc1cccc(-c2cc(F)c3ncnc(NC4CC4)c3c2)c1)C1CC1 [Example 775, N-cyclopropyl-N-(3-(4-(cyclopropylamino)-8-fluoroquinazolin-6-yl)benzyl)isoxazole-5-carboxamide]
7 | – | 75% | Cc1cc2ncnc(NC3CC3)c2cc1-c1cccc(CN(C(=O)c2cccc(C(F)(F)F)c2)C2CC2)c1 [Example 676, N-cyclopropyl-N-(3-(4-(cyclopropylamino)-7-methylquinazolin-6-yl)benzyl)-3-(trifluoromethyl)benzamide]
8 | – | 42% | O=C(c1cc(Cl)cc(Cl)c1)N(Cc1cc(-c2ccc3ncnc(NC4CC4)c3c2)ccn1)C1CC1 [Example 750, 3,5-dichloro-N-cyclopropyl-N-((4-(4-(cyclopropylamino)quinazolin-6-yl)pyridin-2-yl)methyl)benzamide]
9 | – | 55% | Fc1c(CNC2CC2)cccc1-c1ccc2ncnc(NC3CC3)c2c1 [Example 324, N-cyclopropyl-6-(3-((cyclopropylamino)methyl)-2-fluorophenyl)quinazoline-4-amine]
10 | – | 55% | Cc1cc(C(=O)N(Cc2cc(-c3ccc4ncnc(NC5CC5)c4c3)ccc2Cl)C2CC2)n(C)n1 [Example 776, N-(2-chloro-5-(4-(cyclopropylamino)quinazolin-6-yl)benzyl)-N-cyclopropyl-1,3-dimethyl-1H-pyrazole-5-carboxamide]
11 | – | 63% | O=C(c1cccc(C(F)(F)F)c1)N(Cc1cccc(-c2cc(F)c3ncnc(NC4CC4)c3c2)c1)C1CC1 [Example 728, N-cyclopropyl-N-(3-(4-(cyclopropylamino)-8-fluoroquinazolin-6-yl)benzyl)-3-(trifluoromethyl)benzamide]
12 | – | 40% | CN(c1ncnc2ccc(-c3cccc(CN4C(=O)CCC4=O)c3)cc12)C1CC1 [Example 901, 1-(3-(4-(cyclopropyl(methyl)amino)quinazolin-6-yl)benzyl)pyrrolidine-2,5-dione]
13 | – | 74% | Cc1cc2ncnc(NC3CC3)c2cc1-c1cccc(CN(C2CC2)S(=O)(=O)c2cccs2)c1 [Example 737, N-cyclopropyl-N-(3-(4-(cyclopropylamino)-7-methylquinazolin-6-yl)benzyl)thiophene-2-sulfonamide]
14 | – | 89% | CC(C)(C)Nc1ncnc2ccc(-c3ccc(F)c(CN(C(=O)c4ccccc4C(F)(F)F)C4CC4)c3)cc12 [Example 814, N-(5-(4-(tert-butylamino)quinazolin-6-yl)-2-fluorobenzyl)-N-cyclopropyl-2-(trifluoromethyl)benzamide]
15 | – | 77% | Cc1cc2ncnc(NC3CC3)c2cc1-c1cccc(CN(C(=O)CCc2ccccc2)C2CC2)c1 [Example 669, N-cyclopropyl-N-(3-(4-(cyclopropylamino)-7-methylquinazolin-6-yl)benzyl)-3-phenylpropanamide]
16 | – | 95% | CN(c1ncnc2ccc(-c3ccc(F)c(CN(C(=O)c4cccs4)C4CC4)c3)cc12)C1CC1 [Example 427, N-cyclopropyl-N-(5-(4-(cyclopropyl(methyl)amino)quinazolin-6-yl)-2-fluorobenzyl)thiophene-2-carboxamide]
17 | – | 86% | Cc1cc2ncnc(NC3CC3)c2cc1-c1cccc(CN(C(=O)c2cccnc2)C2CC2)c1 [Example 702, N-cyclopropyl-N-(3-(4-(cyclopropylamino)-7-methylquinazolin-6-yl)benzyl)nicotinamide]

Continued, compound first:

Row | Structure (SMILES) | IC50 | inhibition at 10 µM
18 | Fc1ccc(-c2ccc3ncnc(NC4CC4)c3c2)cc1CNC1CC1 [Example 299, N-cyclopropyl-6-(3-((cyclopropylamino)methyl)-4-fluorophenyl)quinazoline-4-amine] | 2010 nM | –
19 | O=S1(=O)CCCN1Cc1cccc(-c2ccc3ncnc(NC4CC4)c3c2)c1 [Example 206, cyclopropyl-{6-[3-(1,1-dioxo-1λ^6-isothiazolidin-2-ylmethyl)-phenyl]-quinazoline-4-yl}-amine; hydrochloride] | – | 34%
20 | O=C1C2CCCCC2C(=O)N1Cc1cccc(-c2ccc3ncnc(NC4CC4)c3c2)c1 (stereo not drawn) [Example 228, 2-[3-(4-cyclopropylamino-quinazolin-6-yl)-benzyl]-hexahydro-isoindole-1,3-dione; hydrochloride] | 8700 nM | –
21 | CN(c1ncnc2ccc(-c3cccc(CN(C(=O)c4ccccn4)C4CC4)c3)cc12)C1CC1 [Example 272, N-cyclopropyl-N-(3-(4-(cyclopropyl(methyl)amino)quinazolin-6-yl)benzyl)picolinamide] | 15300 nM | –
22 | CC(C)(C)OC(=O)NCc1cccc(-c2ccc3ncnc(NC4CC4)c3c2)c1 [Example 295, tert-butyl 3-(4-(cyclopropylamino)quinazolin-6-yl)benzylcarbamate] | – | 0%
23 | CC(C)Nc1ncnc2ccc(-c3cccc(CN(Cc4ccccc4)C(=O)c4cccnc4)c3)cc12 [Example 153, N-benzyl-N-[3-(4-isopropylamino-quinazolin-6-yl)-benzyl]-nicotinamide] | – | 63%
24 | c1cc(CN2CCc3ccccc32)cc(-c2ccc3ncnc(NC4CC4)c3c2)c1 [Example 292, N-cyclopropyl-6-(3-(indolin-1-ylmethyl)phenyl)quinazoline-4-amine] | – | 95%
25 | O=C1CCC(=O)N1Cc1cccc(-c2ccc3ncnc(NCc4ccccc4)c3c2)c1 [Example 199, 1-(3-(4-(benzylamino)quinazolin-6-yl)benzyl)pyrrolidine-2,5-dione] | 1250 nM | –
26 | CC(C)Nc1ncnc2ccc(-c3cccc(CN(Cc4ccccc4)C(=O)c4ccco4)c3)cc12 [Example 149, furan-2-carboxylic acid benzyl-[3-(4-isopropylamino-quinazolin-6-yl)-benzyl]-amide] | – | 32%
27 | CC(NC1CC1)c1cccc(-c2ccc3ncnc(NC4CC4)c3c2)c1 (stereo not drawn) [Example 307, N-cyclopropyl-6-(3-(1-(cyclopropylamino)ethyl)phenyl)quinazoline-4-amine] | – | 37%
28 | COc1ccc(C(=O)N(Cc2cccc(-c3ccc4ncnc(NC5CC5)c4c3)c2)C2CC2)cc1 [Example 171, N-cyclopropyl-N-[3-(4-cyclopropylamino-quinazolin-6-yl)-benzyl]-4-methoxy-benzamide] | – | 100%
29 | CC(c1cccc(-c2ccc3ncnc(NC4CC4)c3c2)c1)N(C(=O)c1ccccc1)C1CC1 (stereo not drawn) [Example 233, N-cyclopropyl-N-{1-[3-(4-cyclopropylamino-quinazolin-6-yl)-phenyl]-ethyl}-benzamide] | 820 nM | –
30 | CCN(CC)c1ncnc2ccc(-c3cccc(CN(C)C(=O)c4ccsc4)c3)cc12 [Example 70, thiophene-3-carboxylic acid [3-(4-diethylamino-quinazolin-6-yl)-benzyl]-methyl-amide] | – | 34%
31 | O=C(c1cccc(Br)n1)N(Cc1cccc(-c2ccc3ncnc(NC4CC4)c3c2)c1)C1CC1 [Example 163, 6-bromo-pyridine-2-carboxylic acid cyclopropyl-[3-(4-cyclopropylamino-quinazolin-6-yl)-benzyl]-amide] | – | 89%
32 | CCCN(Cc1cccc(-c2ccc3ncnc(Nc4ccccc4)c3c2)c1)C(=O)c1ccc(C(F)(F)F)cc1F [Example 93, 2-fluoro-N-[3-(4-phenylamino-quinazolin-6-yl)-benzyl]-N-propyl-4-trifluoromethyl-benzamide] | – | 38%
33 | O=C1CCC(=O)N1Cc1cccc(-c2ccc3nc(NCc4ccccc4)nc(NC4CC4)c3c2)c1 [Example 291, 1-(3-(2-(benzylamino)-4-(cyclopropylamino)quinazolin-6-yl)benzyl)pyrrolidine-2,5-dione] | – | 49%
